# Where “and” joins values, the source holds several entries; their conditions need not be identical. Identical values can stand only once. Entries after “also recorded” stand apart in the source; their conditions may differ.
# Columns and labels:
# β-bungarotoxin = β-bungarotoxin (Bungarus multicinctus, UniProt P00617)
# [1] = molecular target: phospholipase A2 from bee venom (Apis mellifera, UniProt P00630); type: biochemical
# [2] = system: PMA induced inflammation of mouse ears; assay: PMA Mouse Ear Anti-Inflammatory Assay; type: in vivo; conditions: for % Inhibition of Edema Alone: Manoalide 0.04 mg/ear, Hydrocortisone 0.009 mg/ear, Indomethacin 0.09 mg/ear
# Method: (§1) Test compound and phorbol myristate acetate (PMA) or arachidonic acid (ARA) are topically applied simultaneously to the left ears of mice. Three hours 20 minutes (or one hour for ARA) after application, the mouse is sacrificed, left and right ears removed and standard sized bores taken. Edema (inflammation) is measured as the difference in weight between left and right ears [Van Arman, C. G., Clin. Pharmacol. Ther. 16, 900-904 (1974)].
# [3] = system: spontaneous beating isolated guinea pig auricles; assay: Guinea Pig Auricles; conditions: for effects on cardiac muscle: preliminary assays
# Method: Test compound is administered to the spontaneous beating isolated guinea pig auricles and observed for its ability to alter either the rate or the force of contraction or to antagonize the effects of acetylcholine [modified from J. Physiol. 61, 547 (1926); Heffter's Hanb. Exp. Pharmak. 4, 185 (1937)].
# isolated diaphragm = assay: Rat Phrenic Nerve - Hemidiaphragm; conditions: for effects on skeletal muscle: preliminary assays
# Method: Compound is tested for its ability to inhibit or facilitate the twitch of the isolated diaphragm in response to the electrical stimulation of the phrenic nerve [Bulbring, E., Br. J. Pharmac. Chemother. 1, 38 (1946)].
# [4] = system: eggs (from Lytechinus pictus); assay: Fertilized Sea Urchin Egg Inhibition of Cleavage Assay; type: cell-based; conditions: for inhibition of cell division: preliminary assays
# Method: Test compound is added to a slurry of eggs (from Lytechinus pictus) within five minutes following fertilization and incubated until the completion of first division in control slurry, approximately 90 minutes. Inhibition is measured as the percent of undivided eggs in the slurry at the end of incubation [Hinegardner, R., In The Sea Urchin Embryo, ed. C. Czihar (Springer-Verlag, Berlin, 1974)].
# [5] = system: ARA induced inflammation of mouse ears; assay: Arachidonic Acid Mouse Ear Assay; conditions: in vivo
# Method: as §1
# [6] = system: oxazolone induced inflammation of mouse ears; assay: Oxazolone-Induced Sensitization inflammation; type: in vivo; conditions: for EAR WEIGHT (MGS): with oxazolone
# Method: Mice are sensitized by the application of oxazolone to the abdominal area. One week later, test compound and oxazolone are topically applied to the ears of these mice. Six hours after application, the mice are sacrificed, the ears removed and standard sized bores taken and weighed. Edema (inflammation) is measured as the difference in weight between control and treated ears. Without previous sensitization exposure, oxazolone has no inflammatory effect on mouse ears.
# mouse ears = assay: Histology of mouse ears from the anti-inflammatory assay; conditions: in vivo
# From the text: Mouse ears from the anti-inflammatory assay are fixed in Karnofsky's fixative and osmium tetroxide and then embedded in araldite epoxy resin for sectioning for light and electron microscopy.
# [7] = system: isolated section of small intestine; assay: Guinea Pig Ileum; conditions: initial screening
# acetylcholinesterase = molecular target: T1, acetylcholinesterase (Rattus norvegicus, UniProt P37136); assay: Acetylcholinesterase Assay; type: biochemical
# T1 construct: rat brain extract (source of acetylcholinesterase); from tissue; host or cells: rat brain extract
# Method: Test compound is incubated with rat brain extract (source of acetylcholinesterase), acetylthiocholine and dithiobis (2-nitrobenzoic acid). Inhibition of acetylcholinesterase activity is measured spectrophotometrically.
# [8] = system: PMA induced inflammation of mouse ears; assay: PMA Mouse Ear Anti-Inflammatory Assay; conditions: in vivo
# mice [9] = assay: Analgesia - Haffner Technique (tail clip); type: in vivo, mouse; conditions: high doses
# Method: Analgesia is measured as the lack of response to a pinch clamp applied to the tail of a mouse 15 to 30 minutes following subcutaneous injection of the test compound [Bianchi, G. and G. Franeschini, Brit. J. Pharmac. 9, 280 (1954)].
# mice [10] = assay: Acute Toxicity (with analgesia screening); type: in vivo, mouse; conditions: initial screening
# Method: Test compound is injected subcutaneously into mice which are observed for three days for both lethality and any unusual behavior or appearance. This assay may be performed in conjunction with analgesia assays.
# [11] = system: electrically driven section of isolated small intestine; assay: Electrically Stimulated Guinea Pig Ileum
# [12] = system: tumors formed on mouse ears; assay: Tumor Promotion (DMBA/PMA mouse ear); type: in vivo; conditions: PMA as promoter with initiator DMBA
# From the text: An initiating agent, 7,12-dimethylbenzanthracene (DMBA), is applied topically to the ears of mice. Beginning one month later, a tumor promoting agent, phorbol myristate acetate (PMA), and the test compound are applied simultaneously to the ears twice per week for four weeks, then once per week for two weeks. Ears are observed for formation of tumors at the times of application and one week following completion of applications.
# isolated rat uterus = assay: Rat Uterus (Prostaglandin Assay); conditions: against PGE2, PGE1 and PGF2
# [13] = mouse, in vivo, listed as manoalide
# Sequence of β-bungarotoxin (P00617 whole entry, looked up): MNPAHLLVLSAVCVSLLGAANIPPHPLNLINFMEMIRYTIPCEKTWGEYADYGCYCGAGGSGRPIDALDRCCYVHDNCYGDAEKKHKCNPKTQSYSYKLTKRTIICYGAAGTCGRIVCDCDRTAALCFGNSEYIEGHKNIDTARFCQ
# Sequence of phospholipase A2 from bee venom (P00630 34-167 limits assumed): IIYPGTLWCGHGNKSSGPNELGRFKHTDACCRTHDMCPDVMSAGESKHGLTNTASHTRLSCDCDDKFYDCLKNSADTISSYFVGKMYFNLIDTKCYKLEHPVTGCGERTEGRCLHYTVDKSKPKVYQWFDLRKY
# T1 sequence (P37136 32-614): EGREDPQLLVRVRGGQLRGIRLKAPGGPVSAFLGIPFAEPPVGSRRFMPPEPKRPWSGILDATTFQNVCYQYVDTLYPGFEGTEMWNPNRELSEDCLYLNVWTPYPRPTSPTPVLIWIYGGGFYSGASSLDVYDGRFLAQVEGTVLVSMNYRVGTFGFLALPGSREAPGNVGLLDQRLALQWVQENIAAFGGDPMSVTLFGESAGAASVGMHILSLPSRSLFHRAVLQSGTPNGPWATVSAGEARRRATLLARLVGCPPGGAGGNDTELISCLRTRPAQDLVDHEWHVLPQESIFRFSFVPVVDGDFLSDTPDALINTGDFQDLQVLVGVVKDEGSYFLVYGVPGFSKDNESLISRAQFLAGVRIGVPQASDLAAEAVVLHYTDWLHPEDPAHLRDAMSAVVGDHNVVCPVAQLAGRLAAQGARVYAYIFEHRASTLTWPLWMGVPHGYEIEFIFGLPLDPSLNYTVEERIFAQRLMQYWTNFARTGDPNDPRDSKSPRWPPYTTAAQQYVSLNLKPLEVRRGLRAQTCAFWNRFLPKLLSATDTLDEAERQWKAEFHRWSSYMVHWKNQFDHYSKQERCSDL
smiles,measurement,setting,value
CCN(CC)CCCC(C)Nc1c2ccc(Cl)cc2nc2ccc(OC)cc12 (centres unmarked) [mepacrine],Mean TI50 ± S.E.,β-bungarotoxin,43.50 ± 2.50 and 49.00 ± 4.00 and 46.60 ± 7.54 and 35.66 ± 4.67
same,effect on enzyme activity (hydrolysis of phosphatidylcholine),[1],ineffective
"CC(=CCCC(C=O)=CC=CC1=CC(=O)OC1O)CCC1=C(C)CCCC1(C)C (single isomer, unassigned) [dehydro-seco-manoalide]",PMA Mouse Ear anti-inflammatory activity (remark),"[2]; mouse, in vivo",anti-inflammatoryactivity
same,anti-inflammatory potency relative to comparators,"[2]; mouse, in vivo",nearly equivalent in potency to that of manoalide
same,effects on cardiac muscle,[3],no significant activity
same,effects on skeletal muscle,isolated diaphragm,no significant activity
same,inhibition of cell division,[4],no significant activity
"C[C@]12CCC(=O)C=C1CC[C@@H]1[C@@H]2[C@@H](O)C[C@@]2(C)[C@H]1CC[C@]2(O)C(=O)CO [Hydrocortisone, hydrocortisone, reference compound]",effect on ARA induced ear inflammation,[5],Neither manoalide nor hydrocortisone affected the ARA induced inflammation
same,% Inhibition of Edema Alone,[2],16.59 ± 7.00%
same,EAR WEIGHT (MGS),[6]; dose 50 μg/ear,9.7 ± 1.2 MGS
same,EAR WEIGHT (MGS),[6]; dose 100 μg/ear,9.2 ± 0.4 MGS
CC1=C(CC/C(C)=C/CCC2=CCC(C3=CC(=O)OC3O)OC2O)C(C)(C)CCC1 (centres unmarked) [Manoalide],Histology of PMA treated ears,mouse ears,Decreased lymphocyte
same,Histology of PMA treated ears,mouse ears; listed as manoalide,qualitatively produced similar effects to both hydrocortisone and indomethacin
same,Guinea Pig Ileum (remark),[7],Active
same,effect on ARA induced ear inflammation,[5],Inactive
same,effect on ARA induced ear inflammation,[5]; listed as manoalide,Neither manoalide nor hydrocortisone affected the ARA induced inflammation
same,Acetylcholinesterase (remark),acetylcholinesterase,Inactive
same,PMA - Mouse Ear Time Course of Action: time of optimum activity relative to PMA application,[8],< 5 min
same,PMA - Mouse Ear Time Course of Action: time of optimum activity relative to PMA application,[8]; listed as manoalide,five
same,inactivation of β-Bungarotoxin neurotoxic action,β-bungarotoxin,inactivated the irreversible neurotoxic action of β-bungarotoxin; also recorded: prevents the paralytic action of β-bungarotoxin
same,"Analgesia (Haffner Tail-Clip), mechanically induced pain",mice [9],Inactive
same,"Analgesia (Haffner Tail-Clip), mechanically induced pain",mice [9]; listed as manoalide,did not significantly affect mechanically induced pain
same,Inhibition of purified phosplolipase A2 (remark),[1],Active
same,effect on enzyme activity (hydrolysis of phosphatidylcholine),[1],concentration dependent decrease in enzyme activity; also recorded: potent inhibitor of the hydrolysis of phosphatidylcholine
same,type of inhibition of phospholipase A2,[1],non-competitive inhibitor
same,% Inhibition of Edema Alone,[2],28.24 ± 6.58%
same,PMA - Mouse Ear Competition for binding,"[2]; mouse, in vivo",Does not compete
same,PMA - Mouse Ear Potentiation (with Hydrocortisone and Indomethacin),"[2]; mouse, in vivo",Active
same,PMA Mouse Ear anti-inflammatory activity (remark),"[2]; mouse, in vivo",Active; also recorded: blocks this inflammation
same,anti-inflammatory potency relative to comparators,"[2]; mouse, in vivo",greater than that of indomethacin; also recorded: less potent than hydrocortisone
same,anti-inflammatory potency relative to comparators,[2]; [13],more potent than indomethacin and less potent than hydrocortisone
same,ED50 (PMA induced ear inflammation),"[2]; topical, will vary with PMA dose",~40 μg/ear
same,reduction of inflammation due to PMA induction,[2]; total dose of 10 μg applied to the ear,marked reduction of inflammation
same,Mouse Toxicity and Analgesia (remark),mice [10],Active
same,Acetylcholine Antagonism in Guinea Pig Auricles,[3],Inactive
same,Guinea Pig Auricles (remark),[3]; initial screening,Active
same,Electrically Stimulated Guinea Pig Ileum (remark),[11],Inactive
same,antagonism of the morphine block,[11],nor did it antagonize the morphine block
same,block of electrically induced contractions,[11],neither blocked electrically induced contractions
same,incidence of tumors formed on mouse ears,[12],significantly decreases the incidence of tumors
same,contracture in the rat hemidiaphragm preparation,isolated diaphragm,modest contracture
same,effect on the directly stimulated twitch,isolated diaphragm,mildly inhibiting the directly stimulated twitch
same,Rat Phrenic Nerve - Hemidiaphragm (remark),isolated diaphragm; initial screening,Active
same,EAR WEIGHT (MGS),[6]; dose 50 μg/ear,17.5 ± 3.7 MGS
same,EAR WEIGHT (MGS),[6]; dose 100 μg/ear,13.1 ± 1.4 MGS
same,effect on oxazolone induced inflammation,[6]; [13],blocks the oxazolone induced inflammation
same,Rat Uterus (Prostaglandin Assay) activity,isolated rat uterus,Inactive
same,Rat Uterus (Prostaglandin Assay) activity,isolated rat uterus; listed as manoalide,inactive against these agents
same,IC50,"[4]; Lytechinus pictus, 1.5 h, read-out: Fertilized Sea Urchin Egg ED50",1 µg/mL
same,Fertilized Sea Urchin Egg Inhibition of Cleavage (remark),[4]; initial screening,Active
CC1=C(CC/C(C)=C/CCC(C=O)=CCC(O)C2=CC(=O)OC2O)C(C)(C)CCC1 (centres unmarked) [seco-manoalide],PMA Mouse Ear anti-inflammatory activity (remark),"[2]; mouse, in vivo",anti-inflammatoryactivity
same,anti-inflammatory potency relative to comparators,"[2]; mouse, in vivo",nearly equivalent in potency to that of manoalide
same,effects on cardiac muscle,[3],no significant activity
same,effects on skeletal muscle,isolated diaphragm,no significant activity
same,inhibition of cell division,[4],no significant activity
"COc1ccc2c(c1)c(CC(=O)O)c(C)n2C(=O)c1ccc(Cl)cc1 [Indomethacin, indomethacin, reference compound]",effect on ARA induced ear inflammation,[5],effectively blocked
same,% Inhibition of Edema Alone,[2],31.42 ± 12.72%
same,EAR WEIGHT (MGS),[6]; dose 50 μg/ear,16.6 ± 5.7 MGS
same,EAR WEIGHT (MGS),[6]; dose 100 μg/ear,11.1 ± 1.2 MGS

# Reference: US4447445A (priority 1983, dated 1984)
